# Test results published in patent US9133104B2 (Chroma Therapeutics Ltd., priority 2005, dated 2015).
# How the values were obtained:
# [1] = test system: Hela cancer cell line; assay: Cell inhibition assay (SRB cell viability), Hela; format: cell-based; settings: 72 h, Hela cells, IC50 range
# Method: (§1) The corresponding cancer cell lines (Hela, U937 and HUT) growing in log phase were harvested and seeded at 1000 cells/well (200 ul final volume) into 96-well tissue culture plates. Following 24 h of cell growth cells were treated with compounds (final concentration of 20 uM). Plates were then re-incubated for a further 72 h before a sulphorhodamine B (SRB) cell viability assay was conducted according to Skehan 1990 J Natl Canc Inst 82, 1107-1112.
# (§2) Data were expressed as a percentage inhibition of the control, measured in the absence of inhibitor, as follows:— % inhibition=100−((S^i/S^o)×100) where S^i is the signal in the presence of inhibitor and S^o is the signal in the presence of DMSO. IC50 values were determined by non-linear regression analysis, after fitting the results of eight data points to the equation for sigmoidal dose response with variable slope (% activity against log concentration of compound), using Graphpad Prism software. […] NT=Not tested
# [2] = test system: U937 cancer cell line; assay: Cell inhibition assay (SRB cell viability), U937; format: cell-based; settings: Homo sapiens, U-937, U937 cells, 72 h, IC50 range
# Method: as §1, §2
# [3] = molecular target: T1, histone deacetylase activity (HeLa nuclear extract); assay: HDAC fluorescent activity assay (Biomol Fluor de Lys), HeLa nuclear extract; format: biochemical; settings: Fluor de Lys substrate, IC50 range
# T1 construct: Histone deacetylase activity from crude nuclear extract derived from HeLa cells was used for screening
# Method: The ability of compounds to inhibit histone deacetylase activities was measured using the commercially available HDAC fluorescent activity assay from Biomol. In brief, the Fluor de Lys™ substrate, a lysine with an epsilon-amino acetylation, is incubated with the source of histone deacetylase activity (HeLa nuclear extract) in the presence or absence of inhibitor. Deacetylation of the substrate sensitises the substrate to Fluor de Lys™ developer, which generates a fluorophore. Thus, incubation of the substrate with a source of HDAC activity results in an increase in signal that is diminished in the presence of an HDAC inhibitor.
# Data are expressed as a percentage of the control, measured in the absence of inhibitor, with background signal being subtracted from all samples, as follows:— % activity=((S^i−B)/(S^o−B))×100 where S^i is the signal in the presence of substrate, enzyme and inhibitor, S^o is the signal in the presence of substrate, enzyme and the vehicle in which the inhibitor is dissolved, and B is the background signal measured in the absence of enzyme.
# IC50 values were determined by non-linear regression analysis, after fitting the results of eight data points to the equation for sigmoidal dose response with variable slope (% activity against log concentration of compound), using Graphpad Prism software.
# Histone deacetylase activity from crude nuclear extract derived from HeLa cells was used for screening. The preparation, purchased from 4C (Seneffe, Belgium), was prepared from HeLa cells harvested whilst in exponential growth phase. The nuclear extract is prepared according to Dignam JD1983 Nucl. Acid. Res. 11, 1475-1489, snap frozen in liquid nitrogen and stored at −80° C. The final buffer composition was 20 mM Hepes, 100 mM KCl, 0.2 mM EDTA, 0.5 mM DTT, 0.2 mM PMSF and 20% (v/v) glycerol.
# [4] = test system: HUT cancer cell line; assay: Cell inhibition assay (SRB cell viability), HUT; format: cell-based; settings: HUT cells, 72 h, IC50 range
# Method: as §1, §2
Compound,"IC50 ([1]; Homo sapiens, HeLa) [µM]",IC50 [2] [nM],IC50 [3] [nM],IC50 [4] [µM],IC50 [1] [µM]
"CC(C)C[C@H](NCC1CCC(CNCc2ccc3cc(C(=O)NO)sc3c2)CC1)C(=O)OC1CCCC1 (stereo partly drawn) [Compound 128, (S)-2-[(4-{[(2-Hydroxycarbamoyl-benzo[b]thiophen-6-ylmethyl)-amino]-methyl}-cyclohexylmethyl)-amino]-4-methyl-pentanoic acid cyclopentylester]",0.33 to 3.3,< 330,101 to 1000,< 0.33,–
"CCOC(=O)[C@H](CCc1ccccc1)NCc1cccc(NC(=O)CCCCCCC(=O)NO)c1 [Compound 29, (S)-2-[3-(7-Hydroxycarbamoyl-heptanoylamino)-benzylamino]-4-phenyl-butyric acid ethyl ester]",0.33 to 3.3,330 to 3300,101 to 1000,0.33 to 3.3,–
"CC(C)(C)OC[C@H](NCc1ccc(NCc2ccc3cc(C(=O)NO)sc3c2)cc1)C(=O)OC1CCCC1 [Compound 134, (S)-3-tert-Butoxy-2-{4-[(2-hydroxycarbamoyl-benzo[b]thiophen-6-ylmethyl)-amino]-benzylamino}-propionic acid cyclopentyl ester]",–,330 to 3300,101 to 1000,> 3.3,–
"O=C(NO)c1cc2ccc(CNCC3CCC(CN[C@H](C(=O)OC4CCCC4)c4ccccc4)CC3)cc2s1 (stereo partly drawn) [Compound 126, (S)-[(4-{[(2-Hydroxycarbamoyl-benzo[b]thiophen-6-ylmethyl)-amino]-methyl}-cyclohexylmethyl)-amino]phenyl-acetic acid cyclopentyl ester]",–,< 330,101 to 1000,> 3.3,–
"O=C(CCCCCCC(=O)Nc1cncc(CN[C@@H](Cc2ccccc2)C(=O)O)c1)NO [Compound 67, (S)-2-{[5-(7-Hydroxycarbamoyl-heptanoylamino)-pyridin-3-ylmethyl]-amino}-3-phenyl-propionic acid]",> 3.3,–,101 to 1000,–,–
"O=C(CCCCCCC(=O)Nc1cccc(CN[C@@H](CCc2ccccc2)C(=O)O)c1)NO [Compound 30, (S)-2-[3-(7-Hydroxycarbamoyl-heptanoylamino)-benzylamino]-4-phenyl-butyric acid]",> 3.3,–,101 to 1000,–,–
"O=C(CNCc1ccc(CNCc2ccc3cc(C(=O)NO)sc3c2)cc1)OC1CCCC1 [Compound 120, (4-{[(2-Hydroxycarbamoyl-benzo[b]thiophen-6-ylmethyl)-amino]-methyl}-benzylamino)-acetic acid cyclopentyl ester]",–,< 330,< 100,< 0.33,–
"CC(C)C[C@H](NCc1cccc(NC(=O)CCCCCCC(=O)NO)c1)C(=O)OC1CCCC1 [Compound 39, (S)-2-[3-(7-Hydroxycarbamoyl-heptanoylamino)-benzylamino]-4-methyl-pentanoic acid cyclopentyl ester]",–,< 330,101 to 1000,0.33 to 3.3,–
"CCOC(=O)[C@H](COC(C)(C)C)NCc1cccc(NC(=O)CCCCCCC(=O)NO)c1 [Compound 32, (S)-3-tert-Butoxy-2-[3-(7-hydroxycarbamoyl-heptanoylamino)-benzylamino]-propionic acid ethyl ester]",0.33 to 3.3,–,< 100,0.33 to 3.3,–

# Other lines, results leading:
"IC50 ([1]; Homo sapiens, HeLa) [µM]",IC50 [2] [nM],IC50 [3] [nM],IC50 [4] [µM],IC50 [1] [µM],Compound
> 3.3,> 3300,101 to 1000,> 3.3,–,"COc1ccc2[nH]c3c(c2c1)CCN(C(=O)CCCCCCC(=O)NO)C3C(=O)N[C@H](C(=O)O)c1ccccc1 (stereo partly drawn) [Compound 12, (S)-{[2-(7-Hydroxycarbamoyl-heptanoyl)-6-methoxy-2,3,4,9-tetrahydro-1H-beta-carboline-1-carbonyl]-amino}-phenyl-acetic acid]"
0.33 to 3.3,330 to 3300,101 to 1000,0.33 to 3.3,–,"CC(C)(C)OC(=O)[C@@H](NC(=O)[C@H]1Cc2c([nH]c3ccccc23)CN1C(=O)CCCCCCC(=O)NO)c1ccccc1 [Compound 19, (S)-{[(R)-2-(7-Hydroxycarbamoyl-heptanoyl)-2,3,4,9-tetrahydro-1H-beta-carboline-3-carbonyl]-amino}-phenyl-acetic acid tert-butyl ester]"
0.33 to 3.3,330 to 3300,101 to 1000,0.33 to 3.3,–,"O=C(CCCCCCC(=O)Nc1ccc(S(=O)(=O)N[C@H](C(=O)OC2CCCC2)c2ccccc2)cc1)NO [Compound 22, (S)-[4-(7-Hydroxycarbamoyl-heptanoylamino)-benzenesulfonylamino]-phenyl-acetic acid cyclopentyl ester]"
0.33 to 3.3,–,101 to 1000,0.33 to 3.3,–,"O=C(CCCCCCC(=O)N1CCc2c([nH]c3ccccc23)C1C(=O)N[C@@H](Cc1ccccc1)C(=O)OC1CCCC1)NO (stereo partly drawn) [Compound 64, (S)-2-{[2-(7-Hydroxycarbamoyl-heptanoyl)-2,3,4,9-tetrahydro-1H-beta-carboline-1-carbonyl]-amino}-3-phenyl-propionic acid cyclopentyl ester]"
0.33 to 3.3,–,101 to 1000,0.33 to 3.3,–,"O=C(CCCCCNC(=O)c1cccc(CN[C@H](C(=O)OC2CCCC2)c2ccccc2)c1)NO [Compound 69, (S)-[3-(5-Hydroxycarbamoyl-pentylcarbamoyl)-benzylamino]-phenyl-acetic acid cyclopentyl ester]"
> 3.3,–,> 1000,–,–,"O=C(CCCCCCC(=O)N1CCCC1C(=O)N[C@@H](Cc1ccccc1)C(=O)O)NO (stereo partly drawn) [Compound 57, (S)-2-{[1-(7-Hydroxycarbamoyl-heptanoyl)-pyrrolidine-2-carbonyl]-amino}-3-phenyl-propionic acid]"
–,–,101 to 1000,–,> 3.3,"O=C(CCCCCCC(=O)N1Cc2ccccc2C[C@H]1C(=O)N[C@@H](Cc1ccccc1)C(=O)O)NO [Compound 49, (S)-2-{[(S)-2-(7-Hydroxycarbamoyl-heptanoyl)-1,2,3,4-tetrahydro-isoquinoline-3-carbonyl]amino}-3-phenyl-propionic acid]"
> 3.3,–,> 1000,–,–,"O=C(CCCCCCC(=O)N1CCCC1C(=O)N[C@H](C(=O)O)c1ccccc1)NO (stereo partly drawn) [Compound 54, (S)-{[1-(7-Hydroxycarbamoyl-heptanoyl)-pyrrolidine-2-carbonyl]-amino}-phenyl-acetic acid]"
> 3.3,–,101 to 1000,–,–,"O=C(CCCCCNC(=O)c1cccc(CN[C@H](C(=O)O)c2ccccc2)c1)NO [Compound 70, (S)-[3-(5-Hydroxycarbamoyl-pentylcarbamoyl)-benzylamino]-phenyl-acetic acid]"
> 3.3,–,< 100,–,–,"O=C(CCCCCCC(=O)N1CCc2c([nH]c3ccccc23)C1C(=O)N[C@@H](Cc1ccccc1)C(=O)O)NO (stereo partly drawn) [Compound 65, (S)-2-{[2-(7-Hydroxycarbamoyl-heptanoyl)-2,3,4,9-tetrahydro-1H-beta-carboline-1-carbonyl]-amino}-3-phenyl-propionic acid]"
–,330 to 3300,101 to 1000,0.33 to 3.3,–,"O=C(CCCCCCC(=O)Nc1cccc(COC(=O)N[C@@H](Cc2ccccc2)C(=O)OC2CCCC2)c1)NO [Compound 94, (S)-2-[3-(7-Hydroxycarbamoyl-heptanoylamino)-benzyloxycarbonylamino]-3-phenyl-propionic acid cyclopentyl ester]"
–,> 3300,< 100,> 3.3,–,"O=C(CCCCCCC(=O)Nc1cccc(CNC(=O)N[C@H](C(=O)OC2CCCC2)c2ccccc2)c1)NO [Compound 79, (S)-{3-[3-(7-Hydroxycarbamoyl-heptanoylamino)-benzyl]-ureido}-phenyl-acetic acid cyclopentyl ester]"
> 3.3,–,< 100,–,–,"O=C(CCCCCCC(=O)N1Cc2[nH]c3ccccc3c2C(C(=O)NC(Cc2ccccc2)C(=O)O)C1)NO [Compound 59, (S)-2-{[(S)-2-(7-Hydroxycarbamoyl-heptanoyl)-2,3,4,9-tetrahydro-1H-bet α-carboline-4-carbonyl]-amino}-3-phenyl-propionic acid]"
> 3.3,–,> 1000,–,–,"O=C(CCCCCCC(=O)N1Cc2ccccc2C[C@H]1C(=O)N[C@H](C(=O)O)c1ccccc1)NO [Compound 45, (S)-{[(S)-2-(7-Hydroxycarbamoyl-heptanoyl)-1,2,3,4-tetrahydro-isoquinoline-3-carbonyl]-amino}-phenyl-acetic acid]"
